# Numbering of substitutions follows the chain as printed. Where “and” joins values, the source holds several entries; their conditions need not be identical. Identical values can stand only once. Entries after “also recorded” stand apart in the source; their conditions may differ. Like-named read-outs stand apart in the source and are kept apart here.
# Columns and labels:
# Cathepsin C = system: Cathepsin C; design: method as in SI-Ref-4; conditions: ref SI-Ref-4; cited from earlier work
# UCHL1 [1] = molecular target: T1, UCHL1 (Homo sapiens, UniProt P09936); experiment: Thermal shift assay; assay type: binding; conditions: for melting temperature (Tm) of UCHL1: UCHL1 1 µM, 1 h, replicates
# T1 sequence (P09936 1-223): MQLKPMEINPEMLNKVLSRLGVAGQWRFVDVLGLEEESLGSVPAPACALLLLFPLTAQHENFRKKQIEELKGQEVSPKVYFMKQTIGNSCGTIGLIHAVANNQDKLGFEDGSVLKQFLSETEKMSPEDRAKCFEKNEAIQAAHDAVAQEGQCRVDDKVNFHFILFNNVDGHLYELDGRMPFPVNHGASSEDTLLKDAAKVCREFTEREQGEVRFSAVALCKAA
# Protocol: Reactions were performed in white 96-well PCR plates (Bio-Rad). UCHL1 was diluted in thermal shift buffer (1x PBS, 5 mM DTT) to a 4x concentration of 4 µM. The protein was then mixed with 4x compound dissolved in thermal shift buffer in a 1:1 ratio. To each well was added 20 µL of DUB-Inhibitor solution, followed by 1 h incubation time. To each well was then added 20 µL 4x SYPRO Orange in thermal shift buffer. After sealing the plates with a transparent film, thermal denaturation (gradient: 20–90 °C; Increment: 0.3 °C, hold for 5 s before read) was performed and monitored by a Bio-Rad Connect cycler.
# DUBs in HEK293 lysate = experiment: Activity-based protein profiling in the lysate with Ub-VS competition; assay type: binding, human; conditions: 1 µM, 1 h
# Protocol: Cells (4 × 10^6) were seeded in 10 cm dishes and grown to 90% confluency. The medium was aspirated, cells were washed with ice-cold PBS, treated with 600 µL ABP lysis buffer (1% (v/v) IGEPAL, 50 mM Tris, 150 mM NaCl, 5% glycerol, pH 8, cOmplete protease inhibitor cocktail), and incubated on ice for 15 min. The lysed cells were scrapped off the dish, cleared by centrifugation, and the protein concentration was determined via a Bradford assay. […] Each compound was diluted to a 2x concentration in PBS buffer from a 10 mM stock in DMSO (final concentration: 1 µM). Then each compound dilution or a DMSO dilution was mixed with cell lysate and incubated for one hour at room temperature. […] Samples were resolved by SDS-PAGE using a 4–12% Bis-Tris gel (Invitrogen, NuPAGE) with MES SDS running buffer for 50 min at 180 V. Fluorescence was read out using the Alexa564 (λex/em 520–545/577–613 nm, for TAMRA) and Alexa680 (λex/em 650–675/700–730 nm, for the PageRuler Prestained NIR Protein Ladder (Thermo Scientific)) channels on a ChemiDoc MP Imaging System (Bio-Rad).
# HEK293 cells = experiment: Cell growth and viability assay (confluency, propidium iodide); assay type: cell-based, human
# Protocol: (§1) HEK293 cells (5 × 10^3/well) or U-87 MG cells (5.5 × 10^3/well) were seeded into 96-well dishes. The following day cells were treated with the compounds at varying concentrations and propidium iodide at 20 µg/mL. The plates were immediately transferred to the Incucyte S3. Bright-field and red fluorescent images were automatically captured at 1 or 2 h intervals for 72 h with 10x magnification. The confluency of cells and the number of PI-positive cells was determined using the Incucyte masking program.
# UCHL1 [2] = molecular target: T1, UCHL1; experiment: kobs/[I] kinetic assay; assay type: biochemical; conditions: mean ± SD of independent experiments
# Protocol: Reactions were performed in 384 well plates as above. Compound (5 µL of a 4x stock in reaction buffer H supplemented with 2.5 mM TCEP; varying final concentrations ranging from 78 nM to 200 µM) and Ub-Rhodamine 110 (5 µL of a 4x stock in buffer H supplemented with 2.5 mM TCEP; final concentration: 50 nM) were mixed in a 1:1 ratio.
# UCHL1 [3] = molecular target: T1, UCHL1; experiment: Ub-Rhodamine (Ubiquitin rhodamine cleavage) assay; assay type: biochemical; conditions: 1 h preincubation; for IC50: read-out: IC50 (UCHL1)
# UCHL1 in HEK293 cells = system: T2, UCHL1 in HEK293 cells; experiment: Cellular Ub-probe (HA-Ub-VS) competition, inhibition of cellular UCHL1; assay type: cell-based, human
# T2 construct: Western blot analysis of endogenous UCHL1 labeled with HA-Ub-VS after treatment of HEK293 cells; endogenous in cells; host or cells: HEK293
# Protocol: (§2) Proteins were transferred to a polyvinylidene fluoride (PVDF, only experiments in Fig. 4e and Supplementary Fig. 7e, f) or nitrocellulose (all other experiments) membrane using a Trans-Blot Turbo system (Bio-Rad, 1.3 A, 25 V, 10 min). The membranes were blocked with 5% (m/v) nonfat milk in PBS-T buffer and incubated with indicated primary antibodies (anti-UCHL1, 1:1000, Cell Signaling, D3T2E; anti-PARK7, 1:1000, Cell Signaling, D29E5; anti-Tubulin, 1:4000, Sigma, T6199; anti-Hemagglutinin, 1:1000, BioLegend, 16B12; anti-flag, 1:2000, Sigma, F3165; anti-Ubiquitin, 1:1000, Cell Signaling, P4D1; anti-Ubiquitin, 1:300, Santa Cruz, P4D1, sc-8017; anti-UCHL3, 1:1000, Proteintech, 12384-1-AP) overnight. Then the membranes were incubated with the respective secondary antibody (anti-mouse,1:5000, Sigma, NXA931; anti-rabbit, 1:5000, Sigma, GENA934) coupled to horseradish peroxidase. The chemiluminescent reaction was initiated using a Clarity Western ECL substrate (Bio-Rad) and images were taken on a ChemiDoc MP Imaging System (Bio-Rad).
# (§3) The total protein concentration was adjusted to 2 mg/ml by diluting each sample with ABP lysis buffer. A final concentration of 1 µM HA-Ub-VS probe was added, followed by incubation for 30 min at 37 °C. The labeling reaction was quenched by the addition of 4x LDS sample buffer. The samples were separated via SDS-PAGE and further analyzed via western blotting as described above.
# UCHL1 [4] = molecular target: T1, UCHL1; experiment: Identification of probe-labeled proteins with mass spectrometry (pulldown enrichment); conditions: HEK293 cells; 1 µM; 24 h
# Protocol: Cells were cultured, treated with a compound, and lysed as described above. The cell lysate was diluted to a protein concentration of 2 mg/mL with ABP lysis buffer. 1 µL of each click reagent (see above) were added to each sample, followed by an incubation period of one hour at room temperature with protection from light. The sample volume was adjusted to 1000 µL with PBS and 30 µL of a NeutrAvidin (Thermo Fisher) bead slurry (prewashed 3x with PBS) were added to each sample. The samples were incubated for one hour to overnight on a rotator at 15 rpm at 4 °C. Beads were pelleted by centrifugation, the supernatant was discarded, and the beads were washed six times (1x with ½x lysis buffer, followed by five washes with PBS). After removing the washing solution completely, the beads were subjected to reduction with dithiothreitol (1 mM), alkylation with chloroacetamide (5 mM) and on-bead digestion with first LysC (Serva Biotech, 1 h, 37 °C), followed by trypsin (Sigma Aldrich, 1 h, overnight). Tryptic peptides were desalted with C18 StageTips and analyzed by nano-HPLC-MS/MS.
# An Ultimate 3000 RSLC nano-HPLC system and a Hybrid-Orbitrap mass spectrometer (Q Exactive Plus) equipped with a nano-spray source (Thermo Fisher Scientific) was used. The protein fragments were enriched on a C18 PepMap 100 column (5 μm, 100 Å, 300 μm ID * 5 mm, Dionex) using 0.1% TFA, at a flow rate of 30 μL/min, for 5 min and separated on a C18 PepMap 100 column (3 μm, 100 Å, 75 μm ID × 50 cm) using a linear gradient (5–30% ACN/H2O + 0.1% formic acid over 90 min) with a flow rate of 300 nL/min. […] Signals in the mass range of m/z 300 to 1650 were acquired at a resolution of 70,000 for the full scan, followed by ten high-energy collision-dissociation (HCD) MS/MS scans of the most intense at least doubly charged ions at a resolution of 17,500. Proteins were relatively quantified by using MaxQuant[60] v.2.0.3.1, including the Andromeda search algorithm and searching the Homo sapiens reference proteome of the UniProt database. Briefly, an MS/MS ion search was performed for enzymatic trypsin cleavage, allowing two missed cleavages. Carbamidomethylation was set as a fixed protein modification, and oxidation of methionine and acetylation of the N-terminus were set as variable modifications. The mass accuracy was set to 20 parts per million (ppm) for the first search and to 4.5 ppm for the second search. The false discovery rates for peptide and protein identification were set to 0.01. Only proteins for which at least two peptides were quantified were chosen for further validation. Relative quantification of proteins was performed by using the label-free quantification algorithm implemented in MaxQuant. Statistical data analysis of pulldown samples was performed using Perseus[61] v.1.6.15.0, including proteins which were identified in at least four of the five biological replicates which were used per condition. Label-free quantification (LFQ) intensities were log-transformed (log2); replicate samples were grouped together. Pairwise comparisons of groups were performed separately. Missing values were imputed using small normally distributed values (width 0.3, downshift 1.8) and a two-sided t-test (s0 = 5, FDR = 0.001) was performed.
# U-87 MG cells = experiment: Cell growth and viability assay (confluency, propidium iodide); assay type: cell-based, human; conditions: up to 5 µM, up to 72 h
# Protocol: as §1
# [5] = system: monoubiquitin in U-87 MG cells; experiment: Quantification of monoubiquitin levels; assay type: cell-based, human; conditions: 48 h, independent experiments
# Protocol: U-87 MG cells (5 × 10^5/well) were seeded in six-well plates and cultivated for 8 h. Cells were transfected with siRNA as described above. On the next day, cells were cultured in fresh media supplemented with either compounds (final conc. 5 µM) or DMSO, where indicated, for a further 48 h. The media was changed every 24 h to a fresh medium supplemented with compounds (final conc. 5 µM) or DMSO. […] Monoubiquitin band intensities were first normalized to α-tubulin or total protein (Fast Green FCF, TCI) and subsequently normalized to the intensities of monoubiquitin bands in the sample treated with DMSO or siScr (where no DMSO was used) which was set to “1”.
# HEK293 cells proteome = experiment: Identification of probe-labeled proteins with mass spectrometry (pulldown, other proteins); conditions: 1 µM, vs DMSO
# Protocol: Cells were cultured, treated with a compound, and lysed as described above. The cell lysate was diluted to a protein concentration of 2 mg/mL with ABP lysis buffer. 1 µL of each click reagent (see above) were added to each sample, followed by an incubation period of one hour at room temperature with protection from light. The sample volume was adjusted to 1000 µL with PBS and 30 µL of a NeutrAvidin (Thermo Fisher) bead slurry (prewashed 3x with PBS) were added to each sample. The samples were incubated for one hour to overnight on a rotator at 15 rpm at 4 °C. […] Tryptic peptides were desalted with C18 StageTips and analyzed by nano-HPLC-MS/MS.
# An Ultimate 3000 RSLC nano-HPLC system and a Hybrid-Orbitrap mass spectrometer (Q Exactive Plus) equipped with a nano-spray source (Thermo Fisher Scientific) was used. […] Proteins were relatively quantified by using MaxQuant[60] v.2.0.3.1, including the Andromeda search algorithm and searching the Homo sapiens reference proteome of the UniProt database. […] Only proteins for which at least two peptides were quantified were chosen for further validation. Relative quantification of proteins was performed by using the label-free quantification algorithm implemented in MaxQuant. […] Label-free quantification (LFQ) intensities were log-transformed (log2); replicate samples were grouped together. […]
# UCHL3 L168F = molecular target: T3, UCHL3 L168F (Homo sapiens, UniProt P15374, L168F); experiment: Ub-Rhodamine (Ubiquitin rhodamine cleavage) assay; assay type: biochemical; conditions: Supplementary Fig. 10d; 5 mM DTT in buffer H; read-out: IC50 (UCHL3 L168F)
# T3 sequence (P15374 1-230 L168F): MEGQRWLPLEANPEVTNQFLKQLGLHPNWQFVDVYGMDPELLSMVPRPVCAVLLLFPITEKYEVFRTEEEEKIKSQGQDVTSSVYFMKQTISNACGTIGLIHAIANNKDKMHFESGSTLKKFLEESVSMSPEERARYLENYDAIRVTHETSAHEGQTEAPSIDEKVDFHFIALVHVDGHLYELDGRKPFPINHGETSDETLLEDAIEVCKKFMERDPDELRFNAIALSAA
# UCHL3 A11I+L168F = molecular target: T4, UCHL3 A11I+L168F (Homo sapiens, UniProt P15374, A11I/L168F); experiment: Ub-Rhodamine (Ubiquitin rhodamine cleavage) assay; assay type: biochemical; conditions: Supplementary Fig. 10d; 5 mM DTT in buffer H; read-out: IC50 (UCHL3 A11I+L168F)
# T4 sequence (P15374 1-230 A11I/L168F): T3 sequence (P15374 1-230 L168F) with A11I
# UCHL3 = molecular target: T5, UCHL3 (Homo sapiens, UniProt P15374); experiment: Ub-Rhodamine (Ubiquitin rhodamine cleavage) assay; assay type: biochemical; conditions: Supplementary Fig. 10d; 5 mM DTT in buffer H; read-out: IC50 (UCHL3 wt)
# T5 sequence (P15374 1-230): T3 sequence (P15374 1-230 L168F) with F168L
# UCHL3 A11I = molecular target: T6, UCHL3 A11I (Homo sapiens, UniProt P15374, A11I); experiment: Ub-Rhodamine (Ubiquitin rhodamine cleavage) assay; assay type: biochemical; conditions: Supplementary Fig. 10d; 5 mM DTT in buffer H; read-out: IC50 (UCHL3 A11I)
# T6 sequence (P15374 1-230 A11I): T3 sequence (P15374 1-230 L168F) with A11I, F168L
# UCHL1 in U-87 MG cells = system: T7, UCHL1 in U-87 MG cells; experiment: Cellular Ub-probe (HA-Ub-VS) competition, inhibition of cellular UCHL1; assay type: cell-based, human; conditions: 1 or 24 h
# T7 construct: Western blot analysis of endogenous UCHL1 labeled with HA-Ub-VS after treatment of U-87 MG cells; endogenous in cells; host or cells: U-87 MG
# Protocol: as §2, §3
smiles,measurement,setting,value
N#Cc1ccc(-c2ccc(C[C@@H](C#N)NC(=O)C3(N)CCOCC3)cc2)cc1 [AZD5248],IC50,Cathepsin C,0.0029 µM
C#CCn1ccc2c(-c3cccc4c3CCN4C(=O)[C@@H]3CCCN3C#N)ccnc21 [CG173],protein stabilization of UCHL1 compared with GK13S,UCHL1 [1]; Supplementary Fig. 5c,reduced protein stabilization
same,DUB engagement (Ub-VS competitive labeling),DUBs in HEK293 lysate,Ubiquitin-probe competitive band of approx. 30 kDa
same,apoptosis and growth arrest,HEK293 cells; 1.3 and 5 µM,strong induction of apoptosis and growth arrest
same,kinact/KI,UCHL1 [2],597 ± 209 M⁻¹ s⁻¹
same,IC50,UCHL1 [3]; mean ± SD of independent experiments,0.043 ± 0.019 µM
same,inhibition of cellular UCHL1,UCHL1 in HEK293 cells; after 1 h (Supplementary Fig. 5f),very low degree of inhibition
same,inhibition of cellular UCHL1,UCHL1 in HEK293 cells; after 24 h incubation (Supplementary Fig. 5f),no inhibition of cellular UCHL1 at all
C#CCCCNC(=O)[C@H]1CCN(C#N)C1 [GK16S],melting temperature (Tm) of UCHL1,UCHL1 [1]; compound 1.25 µM,53.4 and 53.1
same,melting temperature (Tm) of UCHL1,UCHL1 [1]; compound 2.5 µM,53.4 and 53.1
same,melting temperature (Tm) of UCHL1,UCHL1 [1]; compound 5 µM,53.1 and 53.4
same,"enrichment factor of UCHL1 (log2, vs DMSO)",UCHL1 [4],3
same,toxicity (cell growth and viability),U-87 MG cells,nontoxic
same,growth arrest and apoptosis,"HEK293 cells; up to 5 µM, up to 72 h",neither GK13S nor GK16S showed growth arrest nor apoptosis
same,monoubiquitin intensity normalized to DMSO (= 1),"[5]; siSCr, 5 µM",1.022 and 1.336 and 1.231 and 0.8547
same,monoubiquitin intensity normalized to DMSO (= 1),"[5]; siUCHL3, 5 µM",1.049 and 0.9228 and 0.9331 and 0.7832 and 1.05 and 0.7905
same,IC50,UCHL1 [3],> 100 µM
same,remaining activity at 0.00050402 µM,"UCHL1 [3]; compound 0.50402 nM, read-out: UCHL1 activity, data point mean",90.8%
same,remaining activity at 0.00151206 µM,"UCHL1 [3]; compound 1.51206 nM, read-out: UCHL1 activity, data point mean",89.7%
same,remaining activity at 0.00453618 µM,"UCHL1 [3]; compound 4.53618 nM, read-out: UCHL1 activity, data point mean",99.1%
same,remaining activity at 0.0136085 µM,"UCHL1 [3]; compound 13.6085 nM, read-out: UCHL1 activity, data point mean",96.8%
same,remaining activity at 0.0408257 µM,"UCHL1 [3]; compound 40.8257 nM, read-out: UCHL1 activity, data point mean",83.7%
same,remaining activity at 0.122477 µM,"UCHL1 [3]; compound 122.477 nM, read-out: UCHL1 activity, data point mean",87.4%
same,remaining activity at 0.367431 µM,"UCHL1 [3]; compound 367.431 nM, read-out: UCHL1 activity, data point mean",90.4%
same,remaining activity at 1.10229 µM,"UCHL1 [3]; compound 1102.29 nM, read-out: UCHL1 activity, data point mean",91.3%
same,remaining activity at 3.30688 µM,"UCHL1 [3]; compound 3306.88 nM, read-out: UCHL1 activity, data point mean",90.9%
same,remaining activity at 30.581 µM,"UCHL1 [3]; compound 30581 nM, read-out: UCHL1 activity, data point mean",81%
same,remaining activity at 100 µM,"UCHL1 [3]; compound 100000 nM, read-out: UCHL1 activity, data point mean",68.2%
same,inhibition of cellular UCHL1,"UCHL1 in HEK293 cells; HEK293 cells, 24 h",did not equate to a detectable inhibition; also recorded: does not inhibit cellular UCHL1
same,"Fold change log2, protein 02. Sep",HEK293 cells proteome,0.4147
same,"Fold change log2, protein 07. Sep",HEK293 cells proteome,0.472
"NC(=O)CI [IAA, iodoacetamide, reference compound]",IC50,UCHL3 L168F,2000 ± 100 µM
same,IC50,UCHL3 A11I+L168F,2200 ± 100 µM
same,IC50,UCHL3,1700 ± 100 µM
same,IC50,UCHL3 A11I,1900 ± 100 µM
"CC(=O)O/N=C1\C(=O)N(Cc2cc(Cl)ccc2Cl)c2ccc(Cl)cc21 [LDN-57444, reference compound]",inhibition of cellular UCHL1,UCHL1 in U-87 MG cells,does not lead to inhibition of cellular UCHL1
